Earlier results in patent US7132111B2, “Odorless formulation for treating mucosal discontinuities” (Epien Medical, Inc., priority 2003, dated 2006).

System: aphthous ulcers
Conditions: applied locally, three times a day

With `CN(C)[C@@H]1C(O)=C(C(N)=O)C(=O)[C@@]2(O)C(O)=C3C(=O)c4c(O)ccc(Cl)c4[C@@](C)(O)[C@H]3C[C@@H]12` [Aureomycin] as the molecule, how does the “duration of analgesic effect” value read?
The value was “one half to two”.

What about the “duration of the ulcers with treatment” value (reduced from about 10 days) of the same molecule?
Its value is roughly 5 days.
